Test results taken from paper PMC9694798, “Resveratrol Analogues as Dual Inhibitors of Monoamine Oxidase B and Carbonic Anhydrase VII: A New Multi-Target Combination for Neurodegenerative Diseases?” (Molecules, 2022).
Values joined by “and” are separate entries in the source; they are usually repeats but may differ in a detail not shown here. Equal values may be shown once.

Columns and labels:
Recombinant human MAO-B = target: T1, Recombinant human MAO-B (Homo sapiens, UniProt P27338); assay: In vitro MAO-B inhibition assay (kynuramine, fluorescence); assay type: biochemical; details: kynuramine substrate, mean ± S.D. of three independent experiments
T1 construct: purchased Sigma-Aldrich
T1 sequence (P27338 1-520): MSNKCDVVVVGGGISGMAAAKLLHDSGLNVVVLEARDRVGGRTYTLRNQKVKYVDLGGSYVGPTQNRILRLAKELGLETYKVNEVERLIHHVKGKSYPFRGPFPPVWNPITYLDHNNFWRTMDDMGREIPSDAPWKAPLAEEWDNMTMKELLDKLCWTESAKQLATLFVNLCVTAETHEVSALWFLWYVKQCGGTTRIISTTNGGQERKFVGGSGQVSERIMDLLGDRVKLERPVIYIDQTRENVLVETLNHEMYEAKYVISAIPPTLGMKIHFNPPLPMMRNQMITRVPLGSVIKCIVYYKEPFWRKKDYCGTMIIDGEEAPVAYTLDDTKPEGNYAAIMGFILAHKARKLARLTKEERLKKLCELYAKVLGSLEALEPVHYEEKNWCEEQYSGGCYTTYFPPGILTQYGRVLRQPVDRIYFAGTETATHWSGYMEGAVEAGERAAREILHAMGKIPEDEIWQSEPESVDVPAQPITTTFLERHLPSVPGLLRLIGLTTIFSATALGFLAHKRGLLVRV

hCA II = target: T2, hCA II (Homo sapiens, UniProt P00918); assay: CA inhibition, stopped-flow CO2 hydration assay; assay type: biochemical; details: for Ki: stopped-flow technique, mean of three experiments, errors ±5–10%
T2 construct: His-tag (N); made in house; host or cells: Escherichia coli BL21 (DE3)

hCA I = target: T3, hCA I (Homo sapiens, UniProt P00915); assay: CA inhibition, stopped-flow CO2 hydration assay; assay type: biochemical; details: for Ki: stopped-flow technique, mean of three experiments, errors ±5–10%
T3 construct: His-tag (N); made in house; host or cells: Escherichia coli BL21 (DE3)

hCA VII = hCA VII (Homo sapiens, UniProt P43166); assay: CA inhibition, stopped-flow CO2 hydration assay
Recombinant human MAO-A = target: T4, Recombinant human MAO-A (Homo sapiens, UniProt P21397); assay: In vitro MAO-A inhibition assay (kynuramine, fluorescence); assay type: biochemical; details: kynuramine substrate, mean ± S.D. of three independent experiments
T4 construct: purchased Sigma-Aldrich
T4 sequence (P21397 1-527): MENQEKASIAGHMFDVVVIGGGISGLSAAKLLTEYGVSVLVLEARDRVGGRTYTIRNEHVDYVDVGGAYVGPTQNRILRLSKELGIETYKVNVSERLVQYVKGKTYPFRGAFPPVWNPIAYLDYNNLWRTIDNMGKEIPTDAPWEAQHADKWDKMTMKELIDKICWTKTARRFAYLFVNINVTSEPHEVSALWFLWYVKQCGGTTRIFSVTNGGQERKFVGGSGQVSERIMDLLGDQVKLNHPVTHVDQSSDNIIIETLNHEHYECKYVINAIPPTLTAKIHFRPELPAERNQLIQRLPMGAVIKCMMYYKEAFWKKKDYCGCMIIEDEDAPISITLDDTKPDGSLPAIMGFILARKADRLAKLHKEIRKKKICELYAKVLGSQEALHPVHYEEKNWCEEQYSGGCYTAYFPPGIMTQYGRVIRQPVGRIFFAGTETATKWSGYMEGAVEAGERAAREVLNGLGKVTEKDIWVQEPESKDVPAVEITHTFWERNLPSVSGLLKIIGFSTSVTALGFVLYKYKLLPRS

hCA XII = target: T5, hCA XII (Homo sapiens, UniProt O43570); assay: CA inhibition, stopped-flow CO2 hydration assay; assay type: biochemical; details: stopped-flow technique; mean of three experiments, errors ±5–10%
T5 construct: His-tag (N); made in house; host or cells: Escherichia coli BL21 (DE3)

hCA VB = target: T6, hCA VB (Homo sapiens, UniProt Q9Y2D0); assay: CA inhibition, stopped-flow CO2 hydration assay; assay type: biochemical; details: stopped-flow technique; mean of three experiments, errors ±5–10%
T6 construct: His-tag (N); made in house; host or cells: Escherichia coli BL21 (DE3)

hCA VA = target: T7, hCA VA (Homo sapiens, UniProt P35218); assay: CA inhibition, stopped-flow CO2 hydration assay; assay type: biochemical; details: stopped-flow technique; mean of three experiments, errors ±5–10%
T7 construct: His-tag (N); made in house; host or cells: Escherichia coli BL21 (DE3)

hCA IX = target: T8, hCA IX (Homo sapiens, UniProt Q16790); assay: CA inhibition, stopped-flow CO2 hydration assay; assay type: biochemical; details: stopped-flow technique; mean of three experiments, errors ±5–10%
T8 construct: His-tag (N); made in house; host or cells: Escherichia coli BL21 (DE3)

MAO-B = tested on: MAO-B; design: method as in PMID 7699569; details: cited from earlier work
MAO = tested on: MAO; design: method as in PMID 30809547; details: cited from earlier work

Chain of hCA VII (P43166 whole entry): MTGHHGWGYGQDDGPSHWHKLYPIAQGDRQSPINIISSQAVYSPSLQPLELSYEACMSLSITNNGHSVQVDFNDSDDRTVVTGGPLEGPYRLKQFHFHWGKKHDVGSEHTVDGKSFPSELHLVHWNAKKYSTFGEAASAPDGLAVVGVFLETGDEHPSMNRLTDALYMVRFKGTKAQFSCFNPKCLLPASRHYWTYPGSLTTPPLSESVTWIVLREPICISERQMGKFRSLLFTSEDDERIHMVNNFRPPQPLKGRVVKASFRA
T3 sequence (P00915 whole entry): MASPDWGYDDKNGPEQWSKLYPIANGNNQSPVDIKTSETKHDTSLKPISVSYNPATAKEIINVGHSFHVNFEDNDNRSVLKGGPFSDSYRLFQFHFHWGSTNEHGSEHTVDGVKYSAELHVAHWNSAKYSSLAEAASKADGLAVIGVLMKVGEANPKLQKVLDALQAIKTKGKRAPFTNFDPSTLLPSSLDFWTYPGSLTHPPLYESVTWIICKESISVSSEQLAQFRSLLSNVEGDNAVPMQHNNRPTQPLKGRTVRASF
T7 sequence (P35218 39-305): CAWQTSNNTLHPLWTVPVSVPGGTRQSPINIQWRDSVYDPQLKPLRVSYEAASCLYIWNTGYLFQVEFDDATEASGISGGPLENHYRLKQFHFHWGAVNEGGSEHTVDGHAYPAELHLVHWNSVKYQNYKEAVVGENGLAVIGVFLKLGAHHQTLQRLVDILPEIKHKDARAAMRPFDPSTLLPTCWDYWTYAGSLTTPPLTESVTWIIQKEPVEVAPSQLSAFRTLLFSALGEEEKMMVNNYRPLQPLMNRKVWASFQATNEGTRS
T6 sequence (Q9Y2D0 34-317): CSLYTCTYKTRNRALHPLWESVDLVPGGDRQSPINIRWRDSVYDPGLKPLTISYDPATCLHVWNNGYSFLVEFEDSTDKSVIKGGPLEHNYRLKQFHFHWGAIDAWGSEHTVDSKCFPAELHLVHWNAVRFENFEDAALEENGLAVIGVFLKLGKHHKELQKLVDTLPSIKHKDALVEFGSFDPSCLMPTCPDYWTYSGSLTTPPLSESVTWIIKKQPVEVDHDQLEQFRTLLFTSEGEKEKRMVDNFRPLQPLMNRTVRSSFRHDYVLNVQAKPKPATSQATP
T5 sequence (O43570 25-354): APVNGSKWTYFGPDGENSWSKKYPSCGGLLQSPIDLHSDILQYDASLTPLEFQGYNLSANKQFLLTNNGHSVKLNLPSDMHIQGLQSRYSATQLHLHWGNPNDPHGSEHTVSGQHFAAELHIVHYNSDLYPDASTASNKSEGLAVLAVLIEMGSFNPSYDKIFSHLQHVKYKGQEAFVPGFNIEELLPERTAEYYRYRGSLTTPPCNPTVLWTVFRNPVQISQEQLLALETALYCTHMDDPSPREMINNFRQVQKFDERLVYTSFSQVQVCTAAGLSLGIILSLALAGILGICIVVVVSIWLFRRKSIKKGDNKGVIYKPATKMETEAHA

IC50 (Recombinant human MAO-B)	Ki (hCA II)	Ki (hCA I)	Ki (hCA VII)	IC50 (Recombinant human MAO-A)	Ki (hCA XII)	Ki (hCA VB)	Ki (hCA VA)	Ki (hCA IX)	inhibition potency against hCA II weaker than against hCA VII (hCA II; hCA II vs hCA VII)	inhibitory activities against hCA I, VA, and VB lower than against hCA VII (hCA I; hCA I, VA, VB vs hCA VII)	SMILES	IC50 (MAO-B)	mechanism of MAO inhibition (MAO)
0.103 ± 0.003 µM	75.3 µM	> 100 µM	7.4 µM	2.01 ± 0.033 µM	> 100 µM	9.5 µM	> 100 µM	> 100 µM	–	–	N#Cc1ccc(/C=C/c2ccc(O)cc2)cc1 [Compound 6]	–	–
0.185 ± 0.009 µM	> 100 µM	> 100 µM	9.4 µM	2.71 ± 0.016 µM	> 100 µM	9.7 µM	> 100 µM	81.8 µM	–	–	COc1ccc(/C=C/c2ccc(O)cc2)cc1 [Compound 7]	–	–
14.2 ± 1.82 µM	43.4 µM	> 100 µM	> 100 µM	9.77 ± 0.553 µM	> 100 µM	8.7 µM	83 µM	94.6 µM	–	–	Oc1ccc(/C=C/c2ccc(C(F)(F)F)cc2)cc1 [Compound 5]	–	–
0.156 ± 0.009 µM	35.8 µM	89.5 µM	> 100 µM	3.06 ± 0.1 µM	2.7 µM	84.5 µM	9 µM	23.6 µM	–	–	Oc1ccc(/C=C/c2ccccc2)cc1Cl [Compound 1]	–	–
1.52 ± 0.067 µM	> 100 µM	> 100 µM	7.5 µM	1.79 ± 0.095 µM	> 100 µM	> 100 µM	86 µM	> 100 µM	–	–	Oc1ccc(/C=C/c2ccc(Cl)cc2Cl)cc1 [Compound 3]	–	–
0.011 ± 0.0065 µM	15.6 µM	86.8 µM	0.7 µM	0.43 µM and 0.433 µM	6.9 µM	36.2 µM	70.9 µM	17.4 µM	about 22 fold	up to 120 fold	Oc1ccc(/C=C/c2ccc(C(F)(F)F)cc2)cc1Cl [Compound 4]	–	–
1.44 ± 0.035 µM	> 100 µM	> 100 µM	4.2 µM	2.02 ± 0.175 µM	4.5 µM	32.2 µM	37.2 µM	81.1 µM	–	–	Oc1ccc(/C=C/c2ccc(Cl)cc2Cl)cc1Cl [Compound 2]	–	–

SMILES	IC50 (Recombinant human MAO-B)	Ki (hCA II)	Ki (hCA I)	Ki (hCA VII)	IC50 (Recombinant human MAO-A)	Ki (hCA XII)	Ki (hCA VB)	Ki (hCA VA)	Ki (hCA IX)	inhibition potency against hCA II weaker than against hCA VII (hCA II; hCA II vs hCA VII)	inhibitory activities against hCA I, VA, and VB lower than against hCA VII (hCA I; hCA I, VA, VB vs hCA VII)	IC50 (MAO-B)	mechanism of MAO inhibition (MAO)
Oc1ccc(C=Cc2cc(O)cc(O)c2)cc1 [RSV, 3,4′,5-trihydroxystilbene, reference compound]	> 100 µM	2.8 µM	2.2 µM	4.3 µM	–	0.9 µM	4.6 µM	4.7 µM	0.8 µM	–	–	–	competitive
